In PubChem BioAssay (NCI):
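Dose response: 5 concentrations. Exposure: 48 h. Format: 96-well plates. Endpoint: linear interpolation; highest concentration if not reached. At the GI50, growth is halved. At the TGI there is no net growth.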

Experiments:
Assay in all cases: growth of human tumour cells (NCI), 48 h
[1] = test system: SK-MEL-28 melanoma
[2] = test system: HCT-116 colon
[3] = test system: M14 melanoma
[4] = test system: PC-3 prostate
[5] = test system: NCI-H226 lung
[6] = test system: NCI-H460 lung
[7] = test system: HCT-15 colon
[8] = test system: SW-620 colon
[9] = test system: UACC-257 melanoma
[10] = test system: UO-31 renal
[11] = test system: CAKI-1 renal
[12] = test system: SNB-19 CNS
[13] = test system: A549 NSCLC
[14] = test system: IGROV1 ovarian
[15] = test system: OVCAR-8 ovarian
[16] = test system: U251 CNS
[17] = test system: MOLT-4 leukemia
[18] = test system: EKVX NSCLC
[19] = test system: COLO 205 colon
[20] = test system: DU-145 prostate
[21] = test system: SF-268 CNS
[22] = test system: HCC-2998 colon
[23] = test system: NCI/ADR-RES ovarian
[24] = test system: HOP-62 NSCLC
[25] = test system: K-562 leukemia
[26] = test system: HT29 colon
[27] = test system: HS 578T breast
[28] = test system: MALME-3M melanoma
[29] = test system: OVCAR-3 ovarian
[30] = test system: MDA-MB-435
[31] = test system: SK-OV-3 ovarian
[32] = test system: HL-60(TB) leukemia
[33] = test system: SR leukemia
[34] = test system: OVCAR-5 ovarian
[35] = test system: NCI-H522 lung
[36] = test system: TK-10 renal
[37] = test system: BT-549 breast
[38] = test system: UACC-62 melanoma
[39] = test system: SF-295 CNS
[40] = test system: A498 renal
[41] = test system: LOX IMVI melanoma
[42] = test system: MDA-MB-231 breast
[43] = test system: SN12C renal
[44] = test system: SNB-75 CNS
[45] = test system: T-47D breast
[46] = test system: NCI-H23 lung
[47] = test system: RPMI-8226 leukemia
[48] = test system: KM12 colon
[49] = test system: ACHN renal
[50] = test system: CCRF-CEM leukemia
[51] = test system: SK-MEL-5 melanoma
[52] = test system: MCF7 breast
[53] = test system: SF-539 CNS
[54] = test system: 786-0 renal
[55] = test system: RXF 393 renal

CC(C(=O)O)c1cccc(Oc2ccccc2)c1 (stereo not given)
GI50 [1]: > 100 µM | TGI [1]: > 100 µM | GI50 [2]: > 100 µM | TGI [2]: > 100 µM | GI50 [3]: > 100 µM | TGI [3]: > 100 µM | GI50 [4]: > 100 µM | TGI [4]: > 100 µM | GI50 [5]: > 100 µM | TGI [5]: > 100 µM | GI50 [6]: > 100 µM | TGI [6]: > 100 µM | GI50 [7]: > 100 µM | TGI [7]: > 100 µM | GI50 [8]: > 100 µM | TGI [8]: > 100 µM | GI50 [9]: > 100 µM | TGI [9]: > 100 µM | GI50 [10]: > 100 µM | TGI [10]: > 100 µM | GI50 [11]: > 100 µM | TGI [11]: > 100 µM | GI50 [12]: > 100 µM | TGI [12]: > 100 µM | GI50 [13]: > 100 µM | TGI [13]: > 100 µM | GI50 [14]: > 100 µM | TGI [14]: > 100 µM | GI50 [15]: > 100 µM | TGI [15]: > 100 µM | GI50 [16]: > 100 µM | TGI [16]: > 100 µM | GI50 [17]: > 100 µM | TGI [17]: > 100 µM | GI50 [18]: > 100 µM | TGI [18]: > 100 µM | GI50 [19]: > 100 µM | TGI [19]: > 100 µM | GI50 [20]: > 100 µM | TGI [20]: > 100 µM | GI50 [21]: > 100 µM | TGI [21]: > 100 µM | GI50 [22]: > 100 µM | TGI [22]: > 100 µM | GI50 [23]: > 100 µM | TGI [23]: > 100 µM | GI50 [24]: > 100 µM | TGI [24]: > 100 µM | GI50 [25]: > 100 µM | TGI [25]: > 100 µM | GI50 [26]: > 100 µM | TGI [26]: > 100 µM | GI50 [27]: > 100 µM | TGI [27]: > 100 µM | GI50 [28]: > 100 µM | TGI [28]: > 100 µM | GI50 [29]: > 100 µM | TGI [29]: > 100 µM | GI50 [30]: > 100 µM | TGI [30]: > 100 µM | GI50 [31]: > 100 µM | TGI [31]: > 100 µM | GI50 [32]: > 100 µM | TGI [32]: > 100 µM | GI50 [33]: > 100 µM | TGI [33]: > 100 µM | GI50 [34]: > 100 µM | TGI [34]: > 100 µM | GI50 [35]: > 100 µM | TGI [35]: > 100 µM | GI50 [36]: > 100 µM | TGI [36]: > 100 µM | GI50 [37]: > 100 µM | TGI [37]: > 100 µM | GI50 [38]: > 100 µM | TGI [38]: > 100 µM | GI50 [39]: > 100 µM | TGI [39]: > 100 µM | GI50 [40]: > 100 µM | TGI [40]: > 100 µM | GI50 [41]: > 100 µM | TGI [41]: > 100 µM | GI50 [42]: > 100 µM | TGI [42]: > 100 µM | GI50 [43]: > 100 µM | TGI [43]: > 100 µM | GI50 [44]: > 100 µM | TGI [44]: > 100 µM | GI50 [45]: > 100 µM | TGI [45]: > 100 µM | GI50 [46]: > 100 µM | TGI [46]: > 100 µM | GI50 [47]: > 100 µM | TGI [47]: > 100 µM | GI50 [48]: > 100 µM | TGI [48]: > 100 µM | GI50 [49]: > 100 µM | TGI [49]: > 100 µM | GI50 [50]: > 100 µM | TGI [50]: > 100 µM | GI50 [51]: > 100 µM | TGI [51]: > 100 µM | GI50 [52]: > 100 µM | TGI [52]: > 100 µM | GI50 [53]: > 100 µM | TGI [53]: > 100 µM | GI50 [54]: > 100 µM | TGI [54]: > 100 µM | GI50 [55]: > 100 µM | TGI [55]: > 100 µM
